The text below walks through data of the Kinase Knowledgebase extract (Sharma et al. 2016).

This experiment deals with ROCK2 (human) (UniProt O75116). As to the kind of experiment: Inhibition of ROCK2 Kinase Activity.

Some results are limits rather than exact numbers.

ROCK2 (human), sequence (O75116 whole entry, looked up): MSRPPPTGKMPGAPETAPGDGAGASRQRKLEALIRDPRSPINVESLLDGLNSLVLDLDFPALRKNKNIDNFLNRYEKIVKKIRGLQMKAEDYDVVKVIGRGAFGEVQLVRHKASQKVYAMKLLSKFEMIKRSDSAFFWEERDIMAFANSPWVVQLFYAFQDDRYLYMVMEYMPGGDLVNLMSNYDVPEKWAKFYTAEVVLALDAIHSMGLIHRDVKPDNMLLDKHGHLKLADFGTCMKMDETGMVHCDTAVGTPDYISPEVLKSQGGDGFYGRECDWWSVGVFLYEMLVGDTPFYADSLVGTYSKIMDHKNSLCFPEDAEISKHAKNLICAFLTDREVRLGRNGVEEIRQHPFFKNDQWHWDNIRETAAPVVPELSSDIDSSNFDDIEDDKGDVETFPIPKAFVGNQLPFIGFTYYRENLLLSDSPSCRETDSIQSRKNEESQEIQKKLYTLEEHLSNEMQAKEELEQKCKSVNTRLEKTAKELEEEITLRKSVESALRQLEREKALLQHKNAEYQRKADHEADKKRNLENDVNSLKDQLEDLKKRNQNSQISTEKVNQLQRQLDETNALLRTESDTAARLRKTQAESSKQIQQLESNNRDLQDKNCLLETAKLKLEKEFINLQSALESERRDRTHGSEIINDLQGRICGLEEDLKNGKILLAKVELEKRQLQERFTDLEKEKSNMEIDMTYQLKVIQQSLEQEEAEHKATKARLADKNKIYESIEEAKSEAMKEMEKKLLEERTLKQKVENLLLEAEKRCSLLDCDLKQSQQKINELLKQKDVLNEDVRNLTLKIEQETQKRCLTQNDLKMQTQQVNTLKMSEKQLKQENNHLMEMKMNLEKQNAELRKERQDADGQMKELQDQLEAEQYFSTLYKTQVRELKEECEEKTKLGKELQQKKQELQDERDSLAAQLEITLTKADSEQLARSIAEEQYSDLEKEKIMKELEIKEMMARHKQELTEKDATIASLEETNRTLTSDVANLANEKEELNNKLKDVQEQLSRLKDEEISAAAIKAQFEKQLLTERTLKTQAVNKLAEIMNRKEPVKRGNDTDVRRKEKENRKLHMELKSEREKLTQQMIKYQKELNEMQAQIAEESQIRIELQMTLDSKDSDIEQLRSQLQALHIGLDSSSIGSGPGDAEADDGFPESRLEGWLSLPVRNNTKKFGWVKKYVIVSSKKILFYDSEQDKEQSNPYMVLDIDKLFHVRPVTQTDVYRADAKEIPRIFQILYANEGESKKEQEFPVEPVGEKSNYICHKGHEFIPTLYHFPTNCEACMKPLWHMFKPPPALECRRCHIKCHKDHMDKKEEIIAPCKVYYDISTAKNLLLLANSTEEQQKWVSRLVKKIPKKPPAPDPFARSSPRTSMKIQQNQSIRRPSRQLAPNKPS

The IC50 is the concentration that inhibits the measured activity by half. High values mean a need for much substance, low ones inhibition by little substance. Consider `O=C(CNCC1CCCCC1)Nc1ccc2c(=O)[nH]ccc2c1`, for which the IC50 was under 1000 nM.
Then `COC(=O)C[C@@H](C)C(=O)Nc1cc2cc[nH]c(=O)c2cc1Cl`, with under 1000 nM.
Compound `C[C@H](Oc1ccccc1)C(=O)Nc1cc2cc[nH]c(=O)c2cc1Cl` came in with a half-inhibitory concentration (IC50) of under 1000 nM.
In the case of `O=C(Nc1cc2cc[nH]c(=O)c2cc1Cl)C1(Cc2ccccc2)CCNCC1`, the IC50 was under 1000 nM.
For `N#CCC(=O)Nc1cc2cc[nH]c(=O)c2cc1Cl`, the IC50 is under 1000 nM.
In the case of `CC1(C(=O)Nc2cc3cc[nH]c(=O)c3cc2Cl)CCN(S(C)(=O)=O)CC1`, the IC50 is under 1000 nM.
In the case of `O=C(Cc1ccc(F)cc1)Nc1cc2cc[nH]c(=O)c2cc1Cl`, the half-inhibitory concentration (IC50) is under 1000 nM.
The value for `N#Cc1ccccc1C(=O)Nc1cc2cc[nH]c(=O)c2cc1Cl` was under 1000 nM.
The value for `O=C(COc1ccc(Cl)cc1)Nc1ccc2c(=O)[nH]ccc2c1` was under 1000 nM; that for `C[C@](O)(C(=O)Nc1ccc2c(=O)[nH]cnc2c1)c1ccc(Cl)cc1` was under 1000 nM.
Then `NCCC(=O)Nc1cc2cc[nH]c(=O)c2cc1Cl`, with under 1000 nM; and `O=C(Nc1cc2cc[nH]c(=O)c2cc1Cl)c1ccc(N2CCOCC2)cc1Cl`, with under 1000 nM; and `O=c1[nH]ccc2cc(NC(=O)[C@H]3CC[C@@H](O)CC3)c(Cl)cc12`, with under 1000 nM.
As to `NC(C(=O)Nc1cc2cc[nH]c(=O)c2cc1Cl)c1cccc(Cl)c1` (configuration not stated), the 50% inhibitory concentration (IC50) was under 1000 nM.
With `C[C@](O)(C(=O)Nc1cc2cc[nH]c(=O)c2cc1Cl)c1ccccc1`, the IC50 was under 1000 nM.
`CSCCC(=O)Nc1cc2cc[nH]c(=O)c2cc1Cl` registered an IC50 of under 1000 nM.
`O=C(CNCc1ccncc1)Nc1cc2cc[nH]c(=O)c2cc1Cl` returned an IC50 of under 1000 nM.
The value for `O=C(Nc1cc2cc[nH]c(=O)c2cc1Cl)c1cccc([N+](=O)[O-])c1Cl` was under 1000 nM.
`O=C(Nc1cc2cc[nH]c(=O)c2cc1Cl)C1CNCC(c2ccccc2)C1` (configuration not stated): the IC50 was under 1000 nM.
Then `O=C(Nc1cc2cc[nH]c(=O)c2cc1Cl)[C@H]1CNCC[C@@H]1c1ccccc1`, with under 1000 nM.
`O=C(Nc1ccc2c(=O)[nH]cnc2c1)C1CCN(Cc2ccccc2)CC1` registered a half-maximal inhibitory concentration (IC50) of under 1000 nM.
On to `O=C(Nc1cc2cc[nH]c(=O)c2cc1Cl)C1(c2ccc(Cl)cc2)CCNCC1`, for which the IC50 was under 1000 nM.
Then `O=C(Nc1cc2cc[nH]c(=O)c2cc1Cl)[C@H](O)c1ccccc1Cl`, with under 1000 nM; and `CC(C)(C)C(=O)Nc1cc2cc[nH]c(=O)c2cc1Cl`, with under 1000 nM; and `O=C(CNCC1CC1)Nc1ccc2c(=O)[nH]cnc2c1`, with under 1000 nM.
Then `O=C(Nc1cc2cc[nH]c(=O)c2cc1Cl)c1ccccc1Br`, with under 1000 nM; and `O=C(Nc1cc2cc[nH]c(=O)c2cc1Cl)[C@H]1CNC[C@@H]1c1cccc(Br)c1`, with under 1000 nM.
Regarding `O=C(Nc1cc2cc[nH]c(=O)c2cc1Cl)C1CNCCN1` (configuration not stated), the 50% inhibitory concentration (IC50) is under 1000 nM.
In the case of `N[C@H]1C[C@@H](C(=O)Nc2cc3cc[nH]c(=O)c3cc2Cl)C1`, the IC50 is under 1000 nM.
Then `O=C(Nc1cc2cc[nH]c(=O)c2cc1Cl)[C@H]1CNC[C@@H]1c1ccc(Cl)cc1`, with under 1000 nM; and `O=C(Nc1ccc2c(=O)[nH]ccc2c1)C1CNCC1c1ccc(F)cc1` (configuration not stated), with under 1000 nM.
Compound `O=C(Nc1ccc2c(=O)[nH]ccc2c1)C1(c2ccc(Cl)cc2)CCCC1` displayed a half-maximal inhibitory concentration (IC50) of under 1000 nM.
`CC(C)[C@@H](N)C(=O)Nc1ccc2c(=O)[nH]cnc2c1` returned an IC50 of under 1000 nM.
The value for `N[C@H]1CC[C@](C(=O)Nc2cc3cc[nH]c(=O)c3cc2Cl)(c2ccc(Cl)cc2)CC1` was under 1000 nM; that for `C[C@H]1CN(C)CC[C@@H]1C(=O)Nc1cc2cc[nH]c(=O)c2cc1Cl` was under 1000 nM.
The compound `O=C(Nc1cc2cc[nH]c(=O)c2cc1Cl)C1CCN(Cc2ccccc2)CC1` had an IC50 of under 1000 nM.
In turn, `O=C(CNCCc1cccs1)Nc1ccc2c(=O)[nH]cnc2c1` gave a 50% inhibitory concentration (IC50) of under 1000 nM.
The value for `O=C(Nc1cc2cc[nH]c(=O)c2cc1Cl)c1cc([N+](=O)[O-])ccc1Cl` was under 1000 nM; that for `CCOC(=O)CCC(=O)Nc1ccc2c(=O)[nH]ccc2c1` was under 1000 nM; that for `N[C@H](Cc1ccc(Cl)cc1)C(=O)Nc1cc2cc[nH]c(=O)c2cc1Cl` was under 1000 nM.
Then `C[C@](O)(C(=O)Nc1cc2cc[nH]c(=O)c2cc1Cl)c1ccc(Cl)cc1`, with under 1000 nM; and `O=C(Nc1cc2nc[nH]c(=O)c2cc1Cl)[C@H]1CNC[C@@H]1c1cccc(Br)c1`, with under 1000 nM.
The value for `O=C(Nc1cc2cc[nH]c(=O)c2cc1Cl)[C@H]1CCCNC1` was under 1000 nM; that for `O=C(CNCc1cccnc1)Nc1cc2cc[nH]c(=O)c2cc1Cl` was under 1000 nM; that for `NCCCS(=O)(=O)c1ccc(C(=O)Nc2cc3cc[nH]c(=O)c3cc2Cl)c(Cl)c1` was under 1000 nM.
`CCOC(=O)CC(=O)Nc1cc2cc[nH]c(=O)c2cc1Cl`: the IC50 is under 1000 nM.
Then `Cc1ccc(C(=O)Nc2cc3cc[nH]c(=O)c3cc2Cl)c(Br)c1`, with under 1000 nM; and `O=C(Nc1cc2cc[nH]c(=O)c2cc1Cl)c1ccc2c(c1)CCNC2`, with under 1000 nM; and `Cc1cc(S(C)(=O)=O)ccc1C(=O)Nc1cc2cc[nH]c(=O)c2cc1Cl`, with under 1000 nM.
The value for `N[C@@H](C(=O)Nc1ccc2c(=O)[nH]ccc2c1)C1CCCCC1` was under 1000 nM.
On to `CC(C)(C)NCC(=O)Nc1cc2cc[nH]c(=O)c2cc1Cl`, for which the 50% inhibitory concentration (IC50) was under 1000 nM.
The compound `O=C(Nc1cc2cc[nH]c(=O)c2cc1Cl)C(NCC1CC1)c1ccccc1` (configuration not stated) yielded a concentration for half-maximal inhibition (IC50) of under 1000 nM.
Then `CS(=O)(=O)c1ccc(Cl)c(C(=O)Nc2cc3cc[nH]c(=O)c3cc2Cl)c1`, with under 1000 nM; and `CN1CCC(C(=O)Nc2cc3cc[nH]c(=O)c3cc2F)CC1`, with under 1000 nM.
Compound `O=C(Nc1ccc2c(=O)[nH]cnc2c1)C1CCNCC1` gave an IC50 of under 1000 nM.
The compound `O=C(Nc1cc2cc[nH]c(=O)c2cc1Cl)C(c1ccccc1)N1CCC(O)CC1` (configuration not stated) had an IC50 of under 1000 nM.
The value for `O=C(Nc1cc2cc[nH]c(=O)c2cc1Cl)c1ccccc1CN1CCOCC1` was under 1000 nM; that for `Cc1cc(S(=O)(=O)N2CCNCC2)ccc1C(=O)Nc1cc2cc[nH]c(=O)c2cc1Cl` was under 1000 nM; that for `O=C(Nc1ccc2c(=O)[nH]ccc2c1)c1cccnc1Sc1ccccc1` was under 1000 nM.
Compound `O=C(Nc1cc2cc[nH]c(=O)c2cc1Cl)C1CCN(C2CCCCC2)CC1` showed a half-inhibitory concentration (IC50) of under 1000 nM.
Compound `CC(NCCc1cccs1)C(=O)Nc1cc2cc[nH]c(=O)c2cc1Cl` (configuration not stated) returned an IC50 of under 1000 nM.
Regarding `CNC(C(=O)Nc1ccc2c(=O)[nH]cnc2c1)c1ccccc1` (configuration not stated), the IC50 was under 1000 nM.
With `O=C(Nc1cc2cc[nH]c(=O)c2cc1Cl)C1(c2ccccc2)CCNCC1`, the IC50 was under 1000 nM.
`CC[C@@H](C)[C@H](N)C(=O)Nc1cc2cc[nH]c(=O)c2cc1Cl` had a half-inhibitory concentration (IC50) of under 1000 nM.
Then `NC1(C(=O)Nc2ccc3c(=O)[nH]ccc3c2)CCCCC1`, with under 1000 nM; and `N[C@H](CC1CCCCC1)C(=O)Nc1cc2cc[nH]c(=O)c2cc1Cl`, with under 1000 nM; and `O=C(Nc1cc2cc[nH]c(=O)c2cc1Cl)[C@H](O)C1CCCCC1`, with under 1000 nM.
`CC(C)OC(=O)Nc1cc2cc[nH]c(=O)c2cc1Cl` yielded an IC50 of under 1000 nM.
With `N[C@H]1CC[C@@](C(=O)Nc2cc3cc[nH]c(=O)c3cc2Cl)(c2ccc(Cl)cc2)CC1`, the IC50 is under 1000 nM.
The value for `O=C(Nc1cc2cc[nH]c(=O)c2cc1Cl)[C@@H]1CCCCN1` was under 1000 nM; that for `O=C(Nc1cc2cc[nH]c(=O)c2cc1Cl)[C@H]1CNC[C@@H]1c1ccccc1` was under 1000 nM; that for `O=C(Nc1ccc2c(=O)[nH]ccc2c1)c1cccnc1Oc1ccc(Cl)cc1` was under 1000 nM.
`CCN(C)C(C(=O)Nc1cc2cc[nH]c(=O)c2cc1Cl)c1ccccc1` (configuration not stated): the IC50 is under 1000 nM.
`O=C(Nc1cc2cc[nH]c(=O)c2cc1Cl)C1CCOCC1` returned a 50% inhibitory concentration (IC50) of under 1000 nM.
Then `CC1(C(=O)Nc2cc3cc[nH]c(=O)c3cc2Cl)CCNCC1`, with under 1000 nM.
As for `CC(NCC1CCCCC1)C(=O)Nc1cc2cc[nH]c(=O)c2cc1Cl` (configuration not stated), the concentration for half-maximal inhibition (IC50) was under 1000 nM.
Then `COC(C(=O)Nc1cc2cc[nH]c(=O)c2cc1Cl)(c1ccccc1)C(F)(F)F` (configuration not stated), with under 1000 nM; and `CC(C)(N)C(=O)Nc1ccc2c(=O)[nH]ccc2c1`, with under 1000 nM; and `C[C@@](O)(C(=O)Nc1cc2cc[nH]c(=O)c2cc1Cl)c1ccccc1`, with under 1000 nM.
Then `Cc1ccc([C@@H](N)C(=O)Nc2cc3cc[nH]c(=O)c3cc2Cl)cc1`, with under 1000 nM.
Turning to `O=C(Nc1cc2cc[nH]c(=O)c2cc1Cl)c1cccc2c1CCNC2`, the IC50 was under 1000 nM.
For the compound `O=C(Nc1cc2cc[nH]c(=O)c2cc1Cl)c1c(F)cc(F)cc1F`, the IC50 is under 1000 nM.
The value for `O=C(CNCC1CCOCC1)Nc1cc2cc[nH]c(=O)c2cc1Cl` was under 1000 nM; that for `N[C@@H](Cc1ccccc1)C(=O)Nc1ccc2c(=O)[nH]cnc2c1` was under 1000 nM.
`O=C(Nc1cc2cc[nH]c(=O)c2cc1Cl)c1ccc([N+](=O)[O-])cc1C(F)(F)F` registered an IC50 of under 1000 nM.
The value for `CC(C)CC(N)C(=O)Nc1ccc2c(=O)[nH]cnc2c1` (configuration not stated) was under 1000 nM; that for `N[C@H](Cc1ccncc1)C(=O)Nc1cc2cc[nH]c(=O)c2cc1Cl` was under 1000 nM; that for `O=C(Nc1cc2nc[nH]c(=O)c2cc1Cl)C(NC1CC1)c1ccccc1` (configuration not stated) was under 1000 nM.
The value for `O=C(CNCC1CCCCC1)Nc1cc2cc[nH]c(=O)c2cc1Cl` was under 1000 nM; that for `O=C(O)CC(C(=O)Nc1cc2cc[nH]c(=O)c2cc1Cl)c1ccccc1` (configuration not stated) was under 1000 nM.
In turn, `N[C@H]1CCC[C@@H](C(=O)Nc2cc3cc[nH]c(=O)c3cc2Cl)C1` came in with an IC50 of under 1000 nM.
With `O=C(Nc1ccc2c(=O)[nH]cnc2c1)C1CCCN1` (configuration not stated), the IC50 was under 1000 nM.
Then `CC(=O)O[C@H]1CC[C@@H](C(=O)Nc2cc3cc[nH]c(=O)c3cc2Cl)CC1`, with under 1000 nM; and `COc1cc2c(=O)[nH]ccc2cc1NC(=O)[C@@H]1CCC[C@H](N)C1`, with under 1000 nM.
As to `O=C(Nc1cc2cc[nH]c(=O)c2cc1Cl)[C@@H]1[C@@H]2CNC[C@@H]21`, the concentration for half-maximal inhibition (IC50) is under 1000 nM.
The value for `Cc1cc([N+](=O)[O-])ccc1C(=O)Nc1cc2cc[nH]c(=O)c2cc1Cl` was under 1000 nM; that for `CNC(C)(C)C(=O)Nc1ccc2c(=O)[nH]ccc2c1` was under 1000 nM.
